# In patent US6465654B2, “Process for preparing 1-substituted, 2-substituted 1H-imidazo[4, 5-c]quinoline-4-amines” (3M Innovative Properties Company, priority 1991, dated 2002):
# Legend:
# interferon-α = experiment: Interferon-α induction in human cells, PBM; type: cell-based; settings: 24 hours
# interferon = experiment: Interferon induction in mice; type: in vivo; settings: mouse serum
# Description: One hour later blood samples are withdrawn from the first group. The samples are pooled then centrifuged. The serum is removed from the centrifuge tube, split into two portions, then placed in freezing vials and maintained at −70° C. until analysis. This procedure is repeated at 2 hours with the second group of mice and at 4 hours with the third group of mice. Samples are assayed as described above in connection with the analysis of interferon induction in human cells. The results are expressed in the table below as α/β reference units/mL based on the value obtained for a mouse MU-1-IF standard. Results are shown in the table below wherein results designated as “<” a certain number indicate that interferon was not detectable in amounts above the lower sensitivity level of the assay.
Compound,Interferon-α induction (interferon-α; dose concentration 0.10 μg/mL),Interferon-α induction (interferon-α; dose concentration 0.50 μg/mL),Interferon-α induction (interferon-α; dose concentration 1.0 μg/mL),Interferon-α induction (interferon-α; dose concentration 5.0 μg/mL),"Interferon induction in mice (interferon; oral 0.3 mg/kg, 1 hr) [Reference Units/mL]","Interferon induction in mice (interferon; oral 0.3 mg/kg, 2 hr) [Reference Units/mL]","Interferon induction in mice (interferon; oral 0.3 mg/kg, 4 hr)","Interferon induction in mice (interferon; oral 1 mg/kg, 1 hr)","Interferon induction in mice (interferon; oral 1 mg/kg, 2 hr)","Interferon induction in mice (interferon; oral 1 mg/kg, 4 hr)","Interferon induction in mice (interferon; oral 3 mg/kg, 1 hr)","Interferon induction in mice (interferon; oral 3 mg/kg, 2 hr)","Interferon induction in mice (interferon; oral 3 mg/kg, 4 hr)","Interferon induction in mice (interferon; oral 10 mg/kg, 1 hr) [Reference Units/mL]","Interferon induction in mice (interferon; oral 10 mg/kg, 2 hr) [Reference Units/mL]","Interferon induction in mice (interferon; oral 10 mg/kg, 4 hr)",Interferon-α induction (interferon-α; dose concentration 0.01 μg/mL),Interferon-α induction (interferon-α; dose concentration 0.05 μg/mL)
"4-Amino-α-butyl-1-(2-methylpropyl)-1H-imidazo[4,5-c]quinoline-2-methanol Hemihydrate [Example 60]",1700 α Reference Units/mL,430 α Reference Units/mL,570 α Reference Units/mL,570 α Reference Units/mL,120,870,≦56 Reference Units/mL,290 Reference Units/mL,1500 Reference Units/mL,120 Reference Units/mL,380 Reference Units/mL,870 Reference Units/mL,290 Reference Units/mL,870,3400,1100 Reference Units/mL,,
"CCOCc1nc2c(N)nc3ccccc3c2n1CCC(C)C.Cl [Example 109, 2-Ethoxymethyl-1-(3-methylbutyl)-1H-imidazo[4,5-c]quinolin-4-amine Hydrochloride]",1000 α Reference Units/mL,97 α Reference Units/mL,83 α Reference Units/mL,78 α Reference Units/mL,,,,,,,,,,,,,<1.4 α Reference Units/mL,1000 α Reference Units/mL
"COCc1nc2c(N)nc3ccccc3c2n1Cc1ccccc1 [Example 104, 2-Methoxymethyl-1-phenylmethyl-1H-imidazo[4,5-c]quinolin-4-amine]",310 α Reference Units/mL,180 α Reference Units/mL,140 α Reference Units/mL,310 α Reference Units/mL,<380,<380,<380 Reference Units/mL,˜780 Reference Units/mL,˜780 Reference Units/mL,˜380 Reference Units/mL,≦660 Reference Units/mL,2200 Reference Units/mL,<380 Reference Units/mL,3400,4500,≦660 Reference Units/mL,<2.7 α Reference Units/mL,<2.7 α Reference Units/mL
"4-Amino-N-hydroxyethyl-N-methyl-1-phenylmethyl-1H-imidazo[4,5-c]quinoline-2-methanamine Hemihydrate [Example 30]",<4 α Reference Units/mL,<4 α Reference Units/mL,<4 α Reference Units/mL,72 α Reference Units/mL,<120,<120,<120 Reference Units/mL,<120 Reference Units/mL,<120 Reference Units/mL,<120 Reference Units/mL,<120 Reference Units/mL,<120 Reference Units/mL,<120 Reference Units/mL,<120,600,<120 Reference Units/mL,,
"Nc1nc2ccccc2c2c1nc(CN1CCOCC1)n2Cc1ccccc1 [Example 29, 2-Morpholinomethyl-1-phenylmethyl-1H-imidazo-[4,5-c]quinolin-4-amine]",<5.4 α Reference Units/mL,440 α Reference Units/mL,1000 α Reference Units/mL,580 α Reference Units/mL,<45,<45,<45 Reference Units/mL,<45 Reference Units/mL,<45 Reference Units/mL,<45 Reference Units/mL,<45 Reference Units/mL,<45 Reference Units/mL,<45 Reference Units/mL,<45,<45,<45 Reference Units/mL,,
"CC(C)Cn1c(C(O)c2ccc(Cl)cc2)nc2c(N)nc3ccccc3c21 (stereo not drawn) [Example 55, 4-Amino-α-(4-chlorophenyl)-1-(2-methylpropyl)-1H-imidazo[4,5-c]quinoline-2-methanol]",<4 α Reference Units/mL,1500 α Reference Units/mL,1500 α Reference Units/mL,490 α Reference Units/mL,,,,,,,,,,,,,,
"CCCCC(c1nc2c(N)nc3ccccc3c2n1CC(C)C)N1CCOCC1 (centres unmarked) [Example 62, 2-[1-(1-Morpholino)pentyl]1-1-(2-methylpropyl)-1H-imidazo[4,5-c]quinolin-4-amine]",<5 α Reference Units/mL,<5 α Reference Units/mL,31 α Reference Units/mL,760 α Reference Units/mL,<56,<56,<56 Reference Units/mL,<56 Reference Units/mL,97 Reference Units/mL,<56 Reference Units/mL,220 Reference Units/mL,870 Reference Units/mL,160 Reference Units/mL,380,1100,380 Reference Units/mL,,
"CCCCn1c(COCC)nc2c(N)nc3ccccc3c21 [Example 117, 1-Butyl-2-ethoxymethyl-1H-imidazo[4,5-c]quinolin-4-amine]",340 α Reference Units/mL,140 α Reference Units/mL,91 α Reference Units/mL,110 α Reference Units/mL,<160,1200,<160 Reference Units/mL,≦270 Reference Units/mL,630 Reference Units/mL,≦270 Reference Units/mL,˜820 Reference Units/mL,2200 Reference Units/mL,˜310 Reference Units/mL,1100,480,˜310 Reference Units/mL,<4.4 α Reference Units/mL,360 α Reference Units/mL
"CC(=O)OC(C)c1nc2c(N)nc3ccccc3c2n1CC(C)C.O (stereo not drawn) [Example 69, 4-Amino-α-methyl-1-(2-methylpropyl)-1H-imidazo[4,5-c]quinoline-2-methyl Acetate Hydrate]",1000 α Reference Units/mL,680 α Reference Units/mL,390 α Reference Units/mL,900 α Reference Units/mL,<150,<150,<150 Reference Units/mL,<150 Reference Units/mL,<150 Reference Units/mL,<150 Reference Units/mL,≦270 Reference Units/mL,≦150 Reference Units/mL,<150 Reference Units/mL,1000,1000,≦340 Reference Units/mL,<6.4 α Reference Units/mL,<6.4 α Reference Units/mL
"COCc1nc2c(N)nc3ccccc3c2n1CC(C)(C)O [Example 111, 4-Amino-α,α-dimethyl-2-methoxymethyl-1H-imidazo[4,5-c]quinoline-1-ethanol]",65 α Reference Units/mL,49 α Reference Units/mL,55 α Reference Units/mL,61 α Reference Units/mL,,,,,,,,,,,,,190 α Reference Units/mL,65 α Reference Units/mL
